IC50 data for 63 molecules are collected here from patent US20240190855A1 (Relay Therapeutics, Inc., priority 2021, published 2024).

The assay concerns the target T1, CDK2/Cyclin E complex (Homo sapiens, UniProt P24941).
T1 construct: purchased Eurofins 14-475
Nature of the assay: CDK2/Cyclin E fluorescence-based microfluidic mobility shift assay (CDK2 Biochemical Caliper Assay). The conditions noted are these: read-out: Biochemical CDK2/CyclinE Caliper IC50. In a few lines: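 Wild-type CDK2/Cyclin E was preincubated with compound and ATP for 30 min at RT before the 5-FAM-QSPKKG peptide was added. Final concentrations were 0.1 nM enzyme, 2000 uM ATP, 1.5 uM peptide and 1% DMSO. After 20 hr at RT and EDTA stop, substrate conversion was read by microfluidic mobility shift over an 11-point, 3-fold dilution series.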
`COCc1cc2c(Nc3cc([C@H]4C[C@@H](OC(=O)NC5(C#N)CC5)CO4)[nH]n3)nccn2n1` [Example 698]: the IC50 is ≤ 100 nM.

Take `CC(C)n1cnnc1O[C@H]1CO[C@@H](c2cc(NC(=O)c3cc(COC(F)(F)F)nn3C)n[nH]2)C1` [Example 699]: the IC50 is ≤ 100 nM.

Turning to `COCc1cc2c(Nc3cc([C@H]4C[C@@H](OC(=O)NC5(C)COC5)CO4)[nH]n3)nccn2n1` [Example 700], the IC50 was ≤ 100 nM.

For the molecule `COCc1nc2ccnc(Nc3cc([C@H]4C[C@@H](OC(=O)NC(C)(C)COC)CO4)[nH]n3)c2s1` [Example 701], the IC50 was ≤ 100 nM.

Regarding `COCc1cc2c(Nc3cc([C@H]4C[C@@H](OC(=O)NC5(C6CC6)CC5)CO4)[nH]n3)nccn2n1` [Example 702], the IC50 is ≤ 100 nM.

Consider `COCc1cc2c(Nc3cc([C@H]4C[C@@H](OC(=O)NC(C)(C)CN5CCOCC5)CO4)[nH]n3)nccn2n1` [Example 703], for which the IC50 lay in the range of 250 to 1000 nM.

As for `Cn1nc(COC(F)(F)F)cc1C(=O)Nc1cc([C@H]2C[C@@H](OC(=O)NC3(C)CC3)CO2)[nH]n1` [Example 704], the IC50 is ≤ 100 nM.

`CCC1(NC(=O)O[C@H]2CO[C@@H](c3cc(Nc4nccn5nc(COC)cc45)n[nH]3)C2)CC1` [Example 705]: the IC50 was ≤ 100 nM.

As for `CC(C)NC(=O)O[C@H]1CO[C@@H](c2cc(NC(=O)c3cc(COC(F)(F)F)nn3C)n[nH]2)C1` [Example 706], the IC50 is ≤ 100 nM.

For the molecule `COCc1cc2c(Nc3cc([C@H]4C[C@@H](Oc5nncn5C5(C)CC5)CO4)[nH]n3)nccn2n1` [Example 707], the IC50 was ≤ 100 nM.

On to `COCc1cc2c(Nc3cc([C@H]4C[C@@H](COc5[nH]ncc5C(C)(C)C)C4)[nH]n3)nccn2n1` [Example 708], for which the IC50 is ≤ 100 nM.

As for `COCc1cc2c(Nc3cc([C@H]4C[C@@H](Oc5nncn5C(C)(C)C)CO4)[nH]n3)nccn2n1` [Example 709], the IC50 is ≤ 100 nM.

For `COCc1cc2c(Nc3cc([C@H]4C[C@@H](OC(=O)NC56CC(F)(C5)C6)CO4)[nH]n3)nccn2n1` [Example 710], the IC50 is ≤ 100 nM.

For the molecule `COCc1cc2c(Nc3cc([C@H]4C[C@@H](OC(=O)N[C@H](C)C5COC5)CO4)[nH]n3)nccn2n1` [Example 711], the IC50 was 250 to 1000 nM.

On to `COCc1cc2c(Nc3cc([C@H]4C[C@@H](OC(=O)NC56CC(Cl)(C5)C6)CO4)[nH]n3)nccn2n1` [Example 712], for which the IC50 is ≤ 100 nM.

As for `Cn1nc(COC(F)(F)F)cc1C(=O)Nc1cc([C@H]2C[C@@H](OC(=O)NC(C)(C)C)CO2)[nH]n1` [Example 713], the IC50 is ≤ 100 nM.

For `CC1(NC(=O)O[C@H]2CO[C@@H](c3cc(Nc4nccn5nc(COC(F)F)cc45)n[nH]3)C2)CC1` [Example 714], the IC50 is ≤ 100 nM.

Consider `COCc1cc2c(Nc3cc([C@@H]4C[C@H](Oc5nncn5C(C)C)CO4)[nH]n3)nccn2n1` [Example 715], for which the IC50 is ≤ 100 nM.

With `COCc1cc2c(Nc3cc([C@H]4C[C@@H](OC(=O)NC56CCC(CC5)OC6)CO4)[nH]n3)nccn2n1` [Example 716], the IC50 is ≤ 100 nM.

Regarding `COCc1cc2c(Nc3cc([C@H]4C[C@@H](OC(=O)NC(C)(C)C#N)CO4)[nH]n3)nccn2n1` [Example 717], the IC50 is ≤ 100 nM.

Turning to `COCc1cc2c(Nc3cc([C@H]4C[C@@H](COc5[nH]ncc5C(C)C)C4)[nH]n3)nccn2n1` [Example 718], the IC50 was ≤ 100 nM.

`COCc1cc2c(Nc3cc([C@@H]4C[C@H](Oc5nncn5C5(C)CC5)CO4)[nH]n3)nccn2n1` [Example 719]: the IC50 was ≤ 100 nM.

On to `COCc1cc2c(Nc3cc([C@H]4C[C@@H](OC(=O)N[C@H](C)C(F)(F)F)CO4)[nH]n3)nccn2n1` [Example 720], for which the IC50 is ≤ 100 nM.

In the case of `COCc1cc2c(Nc3cc([C@H]4C[C@@H](OC(=O)N[C@@H](C)C(F)(F)F)CO4)[nH]n3)nccn2n1` [Example 721], the IC50 is ≤ 100 nM.

On to `CC1(NC(=O)O[C@H]2CO[C@@H](c3cc(Nc4ncnn5cccc45)n[nH]3)C2)CC1` [Example 722], for which the IC50 was ≤ 100 nM.

For `CC1(NC(=O)O[C@H]2CO[C@@H](c3cc(Nc4ccc5c(n4)C(C)(C)NC5=O)n[nH]3)C2)CC1` [Example 723], the IC50 is ≤ 100 nM.

Turning to `Cn1ncc2cnc(Nc3cc([C@H]4C[C@@H](OC(=O)NC5(C)CC5)CO4)[nH]n3)cc21` [Example 724], the IC50 was ≤ 100 nM.

`CC1(NC(=O)O[C@H]2CO[C@@H](c3cc(Nc4ncnc5sncc45)n[nH]3)C2)CC1` [Example 725]: the IC50 is ≤ 100 nM.

For the molecule `COCc1cc2c(Nc3cc([C@H]4C[C@@H](OC(=O)C5CCC5(C)C)CO4)[nH]n3)nccn2n1` (stereo partly drawn) [Example 726], the IC50 is ≤ 100 nM.

In the case of `CC1(NC(=O)O[C@H]2CO[C@@H](c3cc(Nc4ccn5nccc5n4)n[nH]3)C2)CC1` [Example 727], the IC50 is ≤ 100 nM.

For `C#CC1(NC(=O)O[C@H]2CO[C@@H](c3cc(Nc4nccn5nc(COC)cc45)n[nH]3)C2)CC1` [Example 728], the IC50 is ≤ 100 nM.

Take `CC1(NC(=O)O[C@H]2CO[C@@H](c3cc(Nc4nccc5[nH]cnc45)n[nH]3)C2)CC1` [Example 730]: the IC50 lay in the range of 250 to 1000 nM.

`CC1(NC(=O)O[C@H]2CO[C@@H](c3cc(Nc4ccc5nccn5n4)n[nH]3)C2)CC1` [Example 732]: the IC50 was ≤ 100 nM.

For `COCc1cc2c(Nc3cc([C@H]4C[C@@H](OC(=O)N5CC6CC(C6)C5)CO4)[nH]n3)nccn2n1` [Example 733], the IC50 lay in the range of 100 to 250 nM.

Take `Cn1cc2ccnc(Nc3cc([C@H]4C[C@@H](OC(=O)NC5(C)CC5)CO4)[nH]n3)c2n1` [Example 734]: the IC50 lay within 1000 to 100000 nM.

For the molecule `CC1(NC(=O)O[C@H]2CO[C@@H](c3cc(Nc4nccc5nccn45)n[nH]3)C2)CC1` [Example 735], the IC50 was ≤ 100 nM.

Regarding `CC[C@H](C)NC(=O)O[C@H]1CO[C@@H](c2cc(Nc3ccc4c(n3)C(C)(C)NC4=O)n[nH]2)C1` [Example 736], the IC50 was ≤ 100 nM.

In the case of `CC1(NC(=O)O[C@H]2CO[C@@H](c3cc(Nc4ccnc5nc[nH]c45)n[nH]3)C2)CC1` [Example 737], the IC50 lay within 100 to 250 nM.

For `CC1(NC(=O)O[C@H]2CO[C@@H](c3cc(Nc4ncnc5[nH]ccc45)n[nH]3)C2)CC1` [Example 738], the IC50 was 250 to 1000 nM.

On to `C[C@H](NC(=O)O[C@H]1CO[C@@H](c2cc(Nc3ccc4c(n3)C(C)(C)NC4=O)n[nH]2)C1)C1CC1` [Example 740], for which the IC50 was ≤ 100 nM.

On to `COCc1cc2c(Nc3cc([C@H]4C[C@@H](Oc5nncn5C5(C(F)(F)F)CC5)CO4)[nH]n3)nccn2n1` [Example 741], for which the IC50 is 100 to 250 nM.

Regarding `COCc1cc2c(Nc3cc([C@@H]4C[C@H](Oc5nncn5C(C)(C)C)CO4)[nH]n3)nccn2n1` [Example 742], the IC50 is ≤ 100 nM.

For `Cn1cnc2c(Nc3cc([C@H]4C[C@@H](OC(=O)NC5(C)CC5)CO4)[nH]n3)nccc21` [Example 743], the IC50 was 1000 to 100000 nM.

With `CC(C)c1nc(Nc2cc([C@H]3C[C@@H](OC(=O)NC4(C)CC4)CO3)[nH]n2)c2cc[nH]c2n1` [Example 744], the IC50 was in the range of 100 to 250 nM.

In the case of `Cn1cc2c(Nc3cc([C@H]4C[C@@H](OC(=O)NC5(C)CC5)CO4)[nH]n3)nccc2n1` [Example 745], the IC50 fell in the range of 100 to 250 nM.

For the molecule `C[C@H](NC(=O)O[C@H]1CO[C@@H](c2cc(NC(=O)c3cc(COC(F)(F)F)nn3C)n[nH]2)C1)C1CC1` [Example 746], the IC50 is ≤ 100 nM.

As to `Cn1ncc2c(Nc3cc([C@H]4C[C@@H](OC(=O)NC5(C)CC5)CO4)[nH]n3)nccc21` [Example 747], the IC50 lay in the range of 250 to 1000 nM.

`CC1(NC(=O)O[C@H]2CO[C@@H](c3cc(Nc4ccnc5nccn45)n[nH]3)C2)CC1` [Example 748]: the IC50 was ≤ 100 nM.

In the case of `CC(C)n1cnnc1O[C@H]1CO[C@@H](c2cc(Nc3nccc4nccn34)n[nH]2)C1` [Example 749], the IC50 is 100 to 250 nM.

For `Cn1nc(COC(F)(F)F)cc1C(=O)Nc1cc([C@H]2C[C@@H](OC(=O)NC34CC(C3)C4)CO2)[nH]n1` [Example 750], the IC50 was ≤ 100 nM.

As to `CC1(C)NC(=O)c2ccc(Nc3cc([C@H]4C[C@@H](OC(=O)NC56CC(C5)C6)CO4)[nH]n3)nc21` [Example 751], the IC50 is ≤ 100 nM.

For `COCc1cc2c(Nc3cc([C@H]4C[C@@H](OC(=O)N[C@H](C)C(F)F)CO4)[nH]n3)nccn2n1` [Example 752], the IC50 was ≤ 100 nM.

Turning to `Cn1nc(COC(F)F)cc1C(=O)Nc1cc([C@H]2C[C@@H](OC(=O)NC3(C)CC3)CO2)[nH]n1` [Example 753], the IC50 is ≤ 100 nM.

Consider `CC1(NC(=O)O[C@H]2CO[C@@H](c3cc(Nc4nccn5nc(C6CC6)cc45)n[nH]3)C2)CC1` [Example 754], for which the IC50 is ≤ 100 nM.

For the molecule `CC1(NC(=O)O[C@H]2CO[C@@H](c3cc(Nc4ccn5c(Cl)nnc5n4)n[nH]3)C2)CC1` [Example 755], the IC50 was in the range of 250 to 1000 nM.

For `CN1CCc2c(ccnc2Nc2cc([C@H]3C[C@@H](OC(=O)NC4(C)CC4)CO3)[nH]n2)C1` [Example 758], the IC50 lay in the range of 1000 to 100000 nM.

Regarding `COCc1cc2c(Nc3cc([C@H]4C[C@@H](OC(=O)N[C@@H]5C[C@@H]5C)CO4)[nH]n3)nccn2n1` [Example 759], the IC50 was ≤ 100 nM.

For `CC1(NC(=O)O[C@H]2CO[C@@H](c3cc(Nc4cc5nccnc5cn4)n[nH]3)C2)CC1` [Example 760], the IC50 is 250 to 1000 nM.

For `CC1(NC(=O)O[C@H]2CO[C@@H](c3cc(Nc4ncnc5ncccc45)n[nH]3)C2)CC1` [Example 761], the IC50 is ≤ 100 nM.

On to `CC1(NC(=O)O[C@H]2CO[C@@H](c3cc(Nc4ccc5nccnc5n4)n[nH]3)C2)CC1` [Example 762], for which the IC50 was in the range of 100 to 250 nM.

For the molecule `COCc1cc2c(Nc3cc([C@H]4C[C@@H](OC(=O)N[C@@H](C)C(F)F)CO4)[nH]n3)nccn2n1` [Example 763], the IC50 is ≤ 100 nM.

In the case of `COCc1cc2c(Nc3cc([C@@H]4C[C@H](OC(=O)NC5(C(F)(F)F)CC5)CO4)[nH]n3)nccn2n1` [Example 764], the IC50 is ≤ 100 nM.

`COCc1cc2c(Nc3cc([C@@H]4C[C@H](OC(=O)N[C@H](C)C5CC5)CO4)[nH]n3)nccn2n1` [Example 765]: the IC50 was ≤ 100 nM.
